Test results from patent US20090286883A1, “TREATMENT OF HEART FAILURE AND ASSOCIATED CONDITIONS BY ADMINISTRATION OF MONOAMINE OXIDASE INHIBITORS” (Universita' degli Studi di Padova (University of Padua), priority 2008, published 2009).
“And” between values parts separate entries of the source, which are not always exact repeats. Equal entries are not always repeated.

Assays:
HL-1 cardiomyocytes = experiment: Oxidative stress (mitochondrial ROS production) upon H2O2 or arachidonic acid; assay type: cell-based; details: for Levels of oxidative stress, Arachidonic acid (% increase vs control): 5 μM arachidonic acid, no treatment 145.6 ± 3.8; for Levels of oxidative stress, Arachidonic acid (% increase vs control) / Levels of oxidative stress, H2O2 (% increase vs control): clorgyline 1 μM; for Levels of oxidative stress, H2O2 (% increase vs control): 100 μM H2O2, no treatment 156.2 ± 4.3; for rise in ROS production / protection: H2O2 or arachidonic acid stimulated HL-1 cardiomyocytes, cell pretreatment
Protocol: In vivo, mitochondria and the respiratory chain, in particular, are considered a major intracellular ROS source^15. MAOs are located in the outer membrane of these organelles and MAO-A can increase oxidative burden. When HL-1 cardiomyocytes were incubated with 100 μM H2O2 or 5 μM arachidonic acid, a rise in ROS production at mitochondrial level was observed (Table 6).

[1] = tested on: neonatal rat cardiomyocytes; experiment: MAO-A and BNP gene expression after NE in absence or presence of clorgyline; assay type: cell-based
Source text: This process may contribute to the development of […]

myocytes = experiment: EMT gene expression upon stimulation with tyramine; assay type: cell-based; details: tyramine 10 μM
cardiomyocytes = experiment: NFAT4 gene expression upon stimulation with tyramine in absence or presence of clorgyline; assay type: cell-based
caspase-3 = experiment: Cleaved caspase-3 levels after 6 weeks of TAC; assay type: in vivo; details: 6 weeks TAC mice, FIG. 1
Source text: Levels of cleaved caspase-3 were markedly elevated after 6 weeks in TAC mice vs shams.

[2] = tested on: TAC-induced pressure overload; experiment: Transverse aortic constriction (TAC) pressure overload in mice, cardiac morphology and in vivo ventricular function; details: for EF (ejection fraction) / FS (fractional shortening) / Heart rate / IVS (interventricular septum) / LV mass/BW / LVEDD (left ventricular end-diastolic dimension) / LVESD (left ventricular end-systolic dimension) / LVPW (left ventricular posterior wall): clorgyline 1 mg/kg/day

C#CCN(C)[C@H](C)Cc1ccccc1 [deprenyl]
Levels of oxidative stress, Arachidonic acid (% increase vs control) (HL-1 cardiomyocytes): 142.4 ± 0.3 % increase vs control
Levels of oxidative stress, H2O2 (% increase vs control) (HL-1 cardiomyocytes): 150.7 ± 4.9 % increase vs control
rise in ROS production / protection (HL-1 cardiomyocytes): No protection

NC[C@H](O)c1ccc(O)c(O)c1 [NE, norepinephrine]
MAO-A gene expression and hypertrophy (BNP expression) ([1]; NE 10 μM for 24 hrs): up-regulation of MAO-A gene expression and induction of hypertrophy
MAO-A (vs GAPDH) gene expression ([1]; NE 10 μM, 24 hrs, control 0.58 ± 0.05): 1.85 ± 0.04
BNP (vs GAPDH) gene expression ([1]; NE 10 μM, 24 hrs, control 1 ± 0): 8.9 ± 1.4

NCCc1ccc(O)cc1 [tyramine]
increase in EMT gene expression (myocytes): 2 fold
EMT/GAPDH gene expression (myocytes; control 0.5 ± 0.04): 0.97 ± 0.2
increase of NFAT4 expression (cardiomyocytes; tyramine incubation of cardiomyocytes): 2 fold
NFAT4 gene expression (normalized to GAPDH) (cardiomyocytes; tyramine, −clorgyline, control 0.24 ± 0.03): 0.38 ± 0.01

C#CCN(C)CCCOc1ccc(Cl)cc1Cl [clorgyline]
caspase-3 activation (cleaved caspase-3) (caspase-3): prevented caspase-3 activation
BNP (vs GAPDH) gene expression ([1]; NE 10 μM 24 hrs in presence of clorgyline, NE alone 8.9 ± 1.4): 4.85 ± 0.9 ^#
NFAT4 gene expression (normalized to GAPDH) (cardiomyocytes; Control (no tyramine), +clorgyline): 0.23 ± 0.02
NFAT4 gene expression (normalized to GAPDH) (cardiomyocytes; Tyramine, +clorgyline (preincubation)): 0.32 ± 0.02
effect on tyramine-induced increase of NFAT4 expression (cardiomyocytes; preincubation with clorgyline prior to tyramine treatment): reduced this effect significantly
Levels of oxidative stress, Arachidonic acid (% increase vs control) (HL-1 cardiomyocytes): 98.3 ± 1.3 % increase vs control
Levels of oxidative stress, H2O2 (% increase vs control) (HL-1 cardiomyocytes): 122.6 ± 3 % increase vs control
rise in ROS production / protection (HL-1 cardiomyocytes): completely prevented, or reduced
EF (ejection fraction) ([2]; TAC 3 weeks): 91.6 ± 0.4^C %
FS (fractional shortening) ([2]; TAC 3 weeks): 56.8 ± 1.9^C %
Heart rate ([2]; TAC 3 weeks): 702 ± 12 bpm
IVS (interventricular septum) ([2]; TAC 3 weeks): 1.3 ± 0.02^B mm
LV mass/BW ([2]; TAC 3 weeks): 6.4 ± 0.3^B mg/g
LVEDD (left ventricular end-diastolic dimension) ([2]; TAC 3 weeks): 2.9 ± 0.06 mm
LVESD (left ventricular end-systolic dimension) ([2]; TAC 3 weeks): 1.2 ± 0.06 mm
LVPW (left ventricular posterior wall) ([2]; TAC 3 weeks): 1.2 ± 0.03^B mm
Heart rate ([2]; TAC 6 weeks): 670 ± 13.7 bpm
IVS (interventricular septum) ([2]; TAC 6 weeks): 1.4 ± 0.03^B mm
LV mass/BW ([2]; TAC 6 weeks): 7.2 ± 0.4^B, D mg/g
LVEDD (left ventricular end-diastolic dimension) ([2]; TAC 6 weeks): 3.0 ± 0.08^D mm
LVESD (left ventricular end-systolic dimension) ([2]; TAC 6 weeks): 1.2 ± 0.04^D mm
LVPW (left ventricular posterior wall) ([2]; TAC 6 weeks): 1.3 ± 0.03^B, D mm
EF (ejection fraction) ([2]; TAC 6 weeks, listed as CLO): 93.6±0.4% and 94.3 ± 0.4^D %
FS (fractional shortening) ([2]; TAC 6 weeks, listed as CLO): 61±0.8% and 61.6 ± 0.9^D %
levels of hypertrophy (LV mass, LVEDD, LVESD) ([2]; TAC, vs saline-treated TAC mice): reduced
wall thickness ([2]; after 3 weeks of TAC, compared to sham operated animals): increased
LV function ([2]; after 3 weeks of TAC, vs saline-treated TAC mice): significantly better
LV function ([2]; at 6 weeks of TAC, vs saline-treated TAC mice): improved
